Measured values as given in patent US20110015208A1, “PHARMACEUTICAL COMPOSITIONS CONTAINING DOPAMINE RECEPTOR LIGANDS AND METHODS OF TREATMENT USING DOPAMINE RECEPTOR LIGANDS” (priority 2007, published 2011).
Structures can show the parent of a compound that is named as a salt.

Assays:
[1] = tested on: chronic mild stress (CMS) model of depression; assay: Chronic mild stress (CMS) model of depression, sucrose consumption (Example 2); assay type: in vivo, rat
Source text: This study evaluated the antidepressant effect of cariprazine hydrochloride in the chronic mild stress (CMS) model of depression. A comparison to the efficacy of the tricyciclic antidepressant compound imipramine was also made.
Male Wistar rats were adapted to laboratory and housing conditions for 3 weeks, followed by adoption to consumption of 1% sucrose solution for an additional 5 weeks before being separated into control and to-be-stressed groups.
Chronic stress was applied to the allocated group for seven weeks. The following stressors were used: food and/or water deprivation, cage tilting (45 degrees backwards), intermittent illumination, paired housing, soiled cage (250 mL of tap water in sawdust bedding), stroboscopic illumination (150 flashed per minute), no stress. All stressors were 10-14 hours in duration and were applied individually and continuously, once or twice weekly, during the day and at night.
Consumption of sucrose solution was measured in 1-hour tests conducted on all animals (i.e., controls and stressed) once weekly throughout the entire experiment. The tests were preceded by 14 hours of food and water deprivation. On the basis of their sucrose intakes following the initial 2 weeks of stress, both stressed and control animals received once-daily chronic (5 weeks) IP injections of vehicle (1% methyl cellulose, 1 mL/kg), cariprazine hydrochloride (0.0625, 0.25 or 1.0 mg/kg), or imipramine (10 mg/kg) as reference treatment. […] These animals were considered weak responders/non-responders and were eliminated from the analysis.

[2] = tested on: basal locomotor activity of mice; assay: Open field, basal locomotor activity of mice (Example 4A); assay type: in vivo, mouse
[3] = cariprazine hydrochloride 1 mg/kg IP once daily
[4] = cariprazine hydrochloride 0.065 and 0.25 mg/kg IP once daily, 5 weeks

| Structure (SMILES) | onset of action: increases in sucrose drinking evident at ([1]; cariprazine hydrochloride 0.065 mg/kg IP once daily, stressed animals) [Week] | sedation ([1]; cariprazine hydrochloride 1 mg/kg IP) | sucrose consumption in control animals [1, 3] | sucrose intake in stressed animals [1, 3] | activity in the CMS model ([1]; cariprazine hydrochloride 1 mg/kg IP once daily (highest dose)) | sucrose drinking in controls (non-stressed) [1, 4] | sucrose drinking in stressed animals [1, 4] | magnitude of effect on sucrose drinking relative to imipramine ([1]; most active dose 0.065 mg/kg IP vs imipramine 10 mg/kg IP) | effect on basal activity compared to water-treated mice ([2]; escitalopram oxalate 0.5, 2.0 and 5.0 mg/kg oral) | Total Distance Traveled [mean ± SEM] ([2]; test condition water, 2.0 mg/kg oral, 60 min pretreatment) [cm/60 min] |
| --- | --- | --- | --- | --- | --- | --- | --- | --- | --- | --- |
| CN(C)C(=O)N[C@H]1CC[C@H](CCN2CCN(c3cccc(Cl)c3Cl)CC2)CC1 [Cariprazine hydrochloride, trans-4-{2-[4-(2,3-dichlorophenyl)-piperazin-1-yl]-ethyl}-N,N-dimethylcarbamoyl-cyclohexylamine hydrochloride] | 1 | strongly sedative dose | significantly decreased | did not change | inactive | without any significant effect | dose-dependently increased sucrose drinking | greater than that of imipramine |  |  |
| CN(C)CCC[C@@]1(c2ccc(F)cc2)OCc2cc(C#N)ccc21 [Escitalopram oxalate, 1-[3-(dimethyl-amino)propyl]-1-(p-fluorophenyl)-5-phthalancarbonitrile] |  |  |  |  |  |  |  |  | Neither valproate nor escitalopram oxalate (0.5, 2.0, and 5.0 mg/kg) had a significant effect | 5939 ± 369 |
